# From patent publication US20230116399A1, “Tumor Homing Statin Derivatives” (Da Zen Theranostics, Inc., priority 2019, published 2023)
# Experiments:
# [1] = system: PC3 (PC); experiment: MTT cell viability, PC3; type: cell-based; conditions: Homo sapiens, 48 h / 24 hours, relative IC50
# Protocol: Cell culture: In the following examples, unless otherwise specified, all cell lines are purchased from American Type Culture Collection and cultured in American Type Culture Collection (ATCC)-recommended media, with fetal bovine serum (FBS) to a final concentration of 10% and 1×penicillin/streptomycin at 37° C. with 5% CO2 in a cell culture incubator, unless otherwise specified. Unless otherwise specified, culture is 2D. Where culture is 3D, low attachment plates are used, with the same media. C4-2B (parental cell line and drug-resistant cells derived therefrom) are cultured in RPMI-1640 with 10% FBS. MDVR cells (an Enzalutamide-resistant variety of C4-2B prostate cancer cells formed as described in Example 4 below) are cultured as indicated for the parental C4-2B cells. 22RV1 Prostate Cancer (PC) cells (ATCC® CRL-2505™, a human prostate carcinoma cell line of epithelial morphology) are cultured in RPMI-1640 with 10% FBS. A549 cells (ATCC® CCL-185™, a human lung carcinoma cell line of epithelial morphology) are cultured in F-12K medium with 10% FBS. A549/DDP cells (Cells were described in DOI: 10.3892/mmr.2014.2163 and in doi: 10.7150/jca.19426; cisplatin resistant cells may be established from exposing parental A549 cells to cisplatin for an extended time). MDR A549/cisplatin lung adenocarcinoma cell line, drug resistant) are cultured in F-12K medium with 10% FBS. […]
# [2] = system: A549 (LC); experiment: MTT cell viability, A549; type: cell-based, human; conditions: 48 h / 24 hours, relative IC50
# Protocol: (§1) Cell culture: In the following examples, unless otherwise specified, all cell lines are purchased from American Type Culture Collection and cultured in American Type Culture Collection (ATCC)-recommended media, with fetal bovine serum (FBS) to a final concentration of 10% and 1×penicillin/streptomycin at 37° C. with 5% CO2 in a cell culture incubator, unless otherwise specified. Unless otherwise specified, culture is 2D. Where culture is 3D, low attachment plates are used, with the same media. C4-2B (parental cell line and drug-resistant cells derived therefrom) are cultured in RPMI-1640 with 10% FBS. MDVR cells (an Enzalutamide-resistant variety of C4-2B prostate cancer cells formed as described in Example 4 below) are cultured as indicated for the parental C4-2B cells. 22RV1 Prostate Cancer (PC) cells (ATCC® CRL-2505™, a human prostate carcinoma cell line of epithelial morphology) are cultured in RPMI-1640 with 10% FBS. A549 cells (ATCC® CCL-185™, a human lung carcinoma cell line of epithelial morphology) are cultured in F-12K medium with 10% FBS. A549/DDP cells (Cells were described in DOI: 10.3892/mmr.2014.2163 and in doi: 10.7150/jca.19426; cisplatin resistant cells may be established from exposing parental A549 cells to cisplatin for an extended time). MDR A549/cisplatin lung adenocarcinoma cell line, drug resistant) are cultured in F-12K medium with 10% FBS. H1975 cells (ATCC® CRL-5908™, a human adenocarcinoma non-small cell lung cancer cell line of epithelial morphology) are cultured in RPMI-1640 medium with 10% FBS; H1975 cells are a cell model for human lung cancer that is resistant to Gefitinib (an EGFR inhibitor drug used for treatment of certain breast, lung and other cancers). H1650 cells (ATCC® CRL-5883™, a adenocarcinoma/bronchoalveolar carcinoma lung cancer cell line of epithelial morphology) are cultured in RPMI-1640 medium with 10% FBS. […]
# [3] = system: A549DDP (LC); experiment: MTT cell viability, A549DDP; type: cell-based, human; conditions: 48 h / 24 hours, relative IC50
# Protocol: as §1
# […] For each cell line, the IC50 is determined for each drug, i.e. the ELSD, the ALSD, and for the corresponding unconjugated statin (Simvastatin), in concentrations from 0.1-100 μM. […]
# [4] = system: H1975 (LC); experiment: MTT cell viability, H1975; type: cell-based, human; conditions: relative IC50
# Protocol: as §1
# [5] = system: H1650 (LC); experiment: MTT cell viability, H1650; type: cell-based, human; conditions: relative IC50
# Protocol: as §1
# [6] = system: PC9 (LC); experiment: MTT cell viability, PC9; type: cell-based, human; conditions: 48 h / 24 hours, relative IC50
# Protocol: as §1
# [7] = system: H446 (LC); experiment: MTT cell viability, H446; type: cell-based, human; conditions: relative IC50
# Protocol: as §1
# [8] = system: 22Rv1 cancer cells; experiment: Western blot for polyubiquitinated proteins; type: cell-based, human; conditions: anti-ubiquitin antibody
# Protocol: Example 3D: Proteins are denatured and separated as described in example 3C; on the membrane a western blot is performed using an antibody that targets ubiquitin for detection of polyubiquitinated proteins; the probes include a molecular weight marker (“Marker”), DMSO (vehicle which serves as a control), an unconjugated statin (Simvastatin), an unconjugated dye (DZ1), and the THSD (here ALSD of formula FIId, “DZ2a”, compound 7). […] Thus it is shown that THSD prevent the removal of polyubiquitinated proteins by cancer cells through altered autophagic processes which involve defective lysosomal functions.
compound,measurement,setting,value
CCC(C)(C)C(=O)O[C@H]1C[C@@H](C)C=C2C=C[C@H](C)[C@H](CC[C@@H]3C[C@@H](O)CC(=O)O3)[C@H]21 [Simvastatin],IC50,[1],14.8 µM
same,IC50,[2]; Homo sapiens,> 50 µM
same,IC50,"[3]; Homo sapiens, A549/DDP",30 µM
same,IC50,"[4]; Homo sapiens, NCI-H1975, 48 h / 24 hours",> 50 µM
same,IC50,"[5]; Homo sapiens, NCI-H1650, 48 h / 24 hours",33.3 µM
same,IC50,[6]; Homo sapiens,33 µM
same,IC50,"[7]; Homo sapiens, NCI-H446, 48 h / 24 hours",39 µM
CC1(C)C(/C=C/C2=C(Cl)C(=C/C=C3/N(CCCCCC(=O)O)c4ccccc4C3(C)C)/CCC2)=[N+](CCCCS(=O)(=O)[O-])c2ccccc21 [DZ1],ubiquitin signal (polyubiquitinated proteins),[8],much weaker signals and less of a smear
same,IC50,[2],> 50 µM
same,IC50,[3],> 50 µM
same,IC50,[4]; 48 h / 24 hours,> 50 µM
same,IC50,[5]; 48 h / 24 hours,> 50 µM
same,IC50,[6],> 50 µM
same,IC50,[7]; 48 h / 24 hours,> 50 µM
